biological target: T1, human follicle-stimulating hormone receptor (FSHR) (Homo sapiens, UniProt P23945); experiment: Measurement of agonist cAMP production by activation of human FSHR; type: cell-based; conditions: CHO-K1 human FSHR cells, 30 minutes at 37° C., HTRF cAMP kit; read-out: hFSHR Agonist cAMP EC50
T1 construct: host or cells: CHO-K1
T1 sequence (P23945 18-695): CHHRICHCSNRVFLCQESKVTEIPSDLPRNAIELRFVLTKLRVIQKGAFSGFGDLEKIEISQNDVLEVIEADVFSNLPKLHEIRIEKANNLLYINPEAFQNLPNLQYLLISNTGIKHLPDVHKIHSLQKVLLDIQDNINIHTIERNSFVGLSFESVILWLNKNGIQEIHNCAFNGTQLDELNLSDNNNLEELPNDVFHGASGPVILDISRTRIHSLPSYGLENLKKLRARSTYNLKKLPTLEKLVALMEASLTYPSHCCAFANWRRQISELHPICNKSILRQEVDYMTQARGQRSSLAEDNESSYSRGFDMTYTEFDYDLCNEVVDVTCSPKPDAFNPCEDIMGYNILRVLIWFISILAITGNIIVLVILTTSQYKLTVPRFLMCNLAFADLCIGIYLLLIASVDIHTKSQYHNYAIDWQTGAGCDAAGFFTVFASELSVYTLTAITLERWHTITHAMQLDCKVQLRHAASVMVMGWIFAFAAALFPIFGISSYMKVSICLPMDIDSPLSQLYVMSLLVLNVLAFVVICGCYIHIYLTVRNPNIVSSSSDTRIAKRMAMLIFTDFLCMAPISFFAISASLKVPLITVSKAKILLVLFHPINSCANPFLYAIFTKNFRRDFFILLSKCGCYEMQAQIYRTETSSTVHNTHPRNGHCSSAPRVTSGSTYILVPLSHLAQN
How it was run: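 cAMP output was measured by HTRF after 30 min at 37 °C agonist exposure (0–10,000 nM final) in stably FSHR-transfected CHO-K1 cells. Lysate cAMP was read off a standard curve and fitted to obtain half-maximal EC50.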

EC50	Structure (SMILES)
10 to 100 nM	COc1cc2c(cc1-c1cncc(NC(=O)CNC(=O)[C@H](CCC(=O)NC[C@H](O)[C@@H](O)[C@H](O)[C@H](O)CO)NC(=O)CN3CCN(CC(=O)O)CCN(CC(=O)O)CCN(CC(=O)O)CC3)c1)-c1c(c(C(=O)N3CCOCC3(C)C)nn1-c1cc(Cl)cc(Cl)c1)CO2 [Compound 56, 2,2′,2″-(10-(2-(((S)-1-((2-((5-(1-(3,5-dichlorophenyl)-3-(3,3-dimethylmorpholine-4-carbonyl)-7-methoxy-1,4-dihydrochromeno[4,3-c]pyrazol-8-yl)pyridin-3-yl)amino)-2-oxoethyl)amino)-1,5-dioxo-5-(((2S,3R,4R,5R)-2,3,4,5,6-pentahydroxyhexyl)amino)pentan-2-yl)amino)-2-oxoethyl)-1,4,7,10-tetraazacyclododecane-1,4,7-triyl)triacetic acid--2,2,2-trifluoroacetic acid (1/1)]
< 10 nM	COc1cc2c(cc1-c1cncc(NCCOCCOCCOCCOCCNC(=O)[C@H](CS(=O)(=O)O)NC(=O)CN3CCN(CC(=O)O)CCN(CC(=O)O)CCN(CC(=O)O)CC3)c1)-c1c(c(C(=O)N3CCOCC3(C)C)nn1-c1cc(Cl)cc(Cl)c1)CO2 [Compound 67, (R)-2,2′,2″-(10-(20-((5-(1-(3,5-dichlorophenyl)-3-(3,3-dimethylmorpholine-4carbonyl)-7-methoxy-1,4-dihydrochromeno|4,3-c|pyrazol-8-yl)pyridin-3-yl)amino)-2,5-dioxo-4-(sulfomethyl)-9,12,15,18-tetraoxa-3,6-diazaicosyl)-1,4,7,10-tetraazacyclododecane-1,4,7-triyl)triacetic acid--2,2,2-trifluoroacetic acid (1/1)]
10 to 100 nM	COc1cc2c(cc1-c1cncc(COCCOCCOCCOCCNC(=O)[C@H](CS(=O)(=O)O)NC(=O)CN3CCN(CC(=O)O)CCN(CC(=O)O)CCN(CC(=O)O)CC3)c1)-c1c(c(C(=O)N3CCOCC3(C)C)nn1-c1cc(Cl)cc(Cl)c1)CO2 [Compound 72, (R)-2,2′,2″-(10-(1-(5-(1-(3,5-dichlorophenyl)-3-(3,3-dimethylmorpholine-4carbonyl)-7-methoxy-1,4-dihydrochromeno|4,3-c|pyrazol-8-yl)pyridin-3-yl)-15,18-dioxo-16-(sulfomethyl)-2,5,8,11-tetraoxa-14,17-diazanonadecan-19-yl)-1,4,7,10-tetraazacyclododecane-1,4,7-triyl)triacetic acid]
10 to 100 nM	COc1cc2c(cc1-c1cncc(NC(=O)CCOCCOCCNC(=O)[C@H]3O[C@@H](CNC(=O)CN4CCN(CC(=O)O)CCN(CC(=O)O)CCN(CC(=O)O)CC4)[C@H](O)[C@@H](O)[C@H]3O)c1)-c1c(c(C(=O)N3CCOCC3(C)C)nn1-c1cc(Cl)cc(Cl)c1)CO2 [Compound 54A, indium (III) 2,2′,2″-(10-(2-((((2S,3R,4R,5R,6S)-6-((2-(2-(3-((5-(1-(3,5-dichlorophenyl)-3-(3,3-dimethylmorpholine-4-carbonyl)-7-methoxy-1,4-dihydrochromeno[4,3-c]pyrazol-8-yl)pyridin-3-yl)amino)-3-oxopropoxy)ethoxy)ethyl)carbamoyl)-3,4,5-trihydroxytetrahydro-2H-pyran-2-yl)methyl)amino)-2-oxoethyl)-1,4,7,10-tetraazacyclododecane-1,4,7-triyl)triacetate]

Further lines, the compound ahead of its results:

Structure (SMILES)	EC50
COc1cc2c(cc1-c1cncc(NC(=O)CCCNC(=O)[C@@H](CCCNC(=N)N)NC(=O)CCNC(=O)CN3CCN(CC(=O)O)CCN(CC(=O)O)CCN(CC(=O)O)CC3)c1)-c1c(c(C(=O)N3CCOCC3(C)C)nn1-c1cc(Cl)cc(Cl)c1)CO2 [Compound 81, (R)-2,2′,2″-(10-(2-((3-((1-((4-((5-(1-(3,5-dichlorophenyl)-3-(3,3dimethylmorpholine-4-carbonyl)-7-methoxy-1,4-dihydrochromeno|4,3-clpyrazol-8-yl)pyridin-3-yl)amino)-4-oxobutyl)amino)-5-guanidino-1-oxopentan-2-yl)amino)-3-oxopropyl)amino)-2-oxoethyl)-1,4,7,10-tetraazacyclododecane-1,4,7-triyl)triacetic acid--2,2,2-trifluoroacetic acid (1/1)]	< 10 nM
COc1cc2c(cc1-c1cccc(NC(=O)NCCNC(=O)[C@H](N)CCCCNC(=O)CN3CCN(CC(=O)O)CCN(CC(=O)O)CCN(CC(=O)O)CC3)c1)-c1c(c(C(=O)N3CCOCC3(C)C)nn1-c1cc(Cl)cc(Cl)c1)CO2 [Compound 23A, indium (III) (R)-2,2′,2″-(10-(2-((5-amino-6-((2-(3-(3-(1-(3,5-dichlorophenyl)-3-(3,3-dimethylmorpholine-4-carbonyl)-7-methoxy-1,4-dihydrochromeno[4,3-c]pyrazol-8-yl)phenyl)ureido)ethyl)amino)-6-oxohexyl)amino)-2-oxoethyl)-1,4,7,10-tetraazacyclododecane-1,4,7-triyl)triacetate]	10 to 100 nM
COc1cc2c(cc1-c1cccc(/C(C)=N/OCCNC(=O)COCCOCCNC(=O)CN3CCN(CC(=O)O)CCN(CC(=O)O)CCN(CC(=O)O)CC3)c1)-c1c(c(C(=O)N3CCOCC3(C)C)nn1-c1cc(Cl)cc(Cl)c1)CO2 [Compound 41, (E)-2,2′,2″-(10-(1-(3-(1-(3,5-dichlorophenyl)-3-(3,3-dimethylmorpholine-4carbonyl)-7-methoxy-1,4-dihydrochromeno|4,3-c|pyrazol-8-yl)phenyl)-7,16-dioxo-3,9,12-trioxa-2,6,15-triazaheptadec-1-en-17-yl)-1,4,7,10-tetraazacyclododecane-1,4,7-triyl)triacetic acid]	10 to 100 nM
COc1cc2c(cc1-c1cccc(NC(=O)NCCNc3c(NCCNC(=O)CN4CCN(CC(=O)O)CCN(CC(=O)O)CCN(CC(=O)O)CC4)c(=O)c3=O)c1)-c1c(c(C(=O)N3CCOCC3(C)C)nn1-c1cc(Cl)cc(Cl)c1)CO2 [Compound 24, 2,2′,2″-(10-(2-((2-((2-((2-(3-(3-(1-(3,5-dichlorophenyl)-3-(3,3-dimethylmorpholine-4-carbonyl)-7-methoxy-1,4-dihydrochromeno|4,3-c|pyrazol-8-yl)phenyl)ureido)ethyl)amino)-3,4-dioxocyclobut-1-en-1-yl)amino)ethyl)amino)-2-oxoethyl)-1,4,7,10-tetraazacyclododecane-1,4,7-triyl)triacetic acid]	10 to 100 nM
COc1cc2c(cc1-c1cccc(NC(=O)CN3CCN(CC(=O)O)CCN(CC(=O)O)CCN(CC(=O)O)CC3)c1)-c1c(c(C(=O)N3CCOCC3(C)C)nn1-c1cc(Cl)cc(Cl)c1)CO2 [Compound 29, 2,2′,2″-(10-(2-((3-(1-(3,5-dichlorophenyl)-3-(3,3-dimethylmorpholine-4-carbonyl)-7-methoxy-1,4-dihydrochromeno|4,3-c|pyrazol-8-yl)phenyl)amino)-2-oxoethyl)-1,4,7,10-tetraazacyclododecane-1,4,7-triyl)triacetic acid]	> 100 nM
COc1cc2c(cc1-c1cccc(NC(=O)CCOCCNC(=O)CN3CCN(CC(=O)O)CCN(CC(=O)O)CCN(CC(=O)O)CC3)c1)-c1c(c(C(=O)N3CCOCC3(C)C)nn1-c1cc(Cl)cc(Cl)c1)CO2 [Compound 20, 2,2′,2″-(10-(2-((2-(3-((3-(1-(3,5-dichlorophenyl)-3-(3,3-dimethylmorpholine-4-carbonyl)-7-methoxy-1,4-dihydrochromeno[4,3-c]pyrazol-8-yl)phenyl)amino)-3-oxopropoxy)ethyl)amino)-2-oxoethyl)-1,4,7,10-tetraazacyclododecane-1,4,7-triyl)triacetic acid]	< 10 nM
